molecular target: T1, KCNQ2/3 ion channel (KCNQ2/3-expressing CHO-K1 cells) (Homo sapiens, UniProt O43525+O43526); experiment: Fluorescence assay (FLIPR instrument, membrane potential dye) for substances acting agonistically on the KCNQ2/3 ion channel; assay type: cell-based; details: difference between maximum and minimum values, agonistic action detected from a value of −40 (and below)
T1 construct: expressed in transfected cells; host or cells: CHO-K1
Experimental: Pharmacological Test Methods I. Fluorescence Assay (FLIPR™ Instrument) for the Identification of Substances Acting Agonistically on the KCNQ2/3 Ion Channel
On the day before the experiment, KCNQ2/3-expressing CHO-K1 cells and CHO-K1 empty strain cells were seeded out onto coated poly-D-lysine black/clear plates (Falcon/BD Company; Order No.: 356640) in a concentration of 20000 cells/100 μl MEM alpha, 50 ml FCS, 5.5 ml PIS/G/solution (100×) and then incubated for 20-24 hours in an incubator (37° C., 5% CO2). On the day of the experiment the HBSS/hepes working solution and the FMP/HBSS/hepes mixture (Membrane Potential Assay Kit Red (FMP), bulk format Cat. No. R8123) were initially prepared according to the following protocol:
• 1000 ml 1× HBSS buffer (Hank's Balanced Salt Solution (1×) (Gibco; No. 14025)+10 ml hepes (1M stock solution, pH 7.4; hepes Na salt (Sigma Company; No. H7006-500 g; storage at 4° C. in a refrigerator) 2. 1× FMP/HBSS/hepes working solution: • 6 ml HBSS/hepes buffer are added to 5 ml of the FMP solution stored at −20° C. (preparation see below; thawing out at room temperature). The test substances (2 mM batch solution in 100% DMSO) contained in drug plates (Costar 96-well plates, catalogue No. 3795) were then diluted by adding HBSS/hepes buffer to a concentration of 30 μM (3× concentrated). The assay plates on which the cells grow were washed once with 200 μl HBSS/hepes (Cellwash Washer, Labsystems Company, catalogue No. 5161550) and the remaining volume was removed by tapping out the inverted plate twice. 100 μl of the FMP/HBSS/hepes working solution were then added in each case to the cell plates and incubated for 1 hour in the CO2 incubator at 37° C. and 5% CO2. The measurements are then carried out with a FLIPR III instrument from the Molecular Devices company (96-format, using the 540-590 nm band-pass filter in the #2 localization). In the experimental setup of the FLIPR software, filter #2 should be selected. The cell plates and the substance plates were fed alternately into the input stack. A signal test was carried out in each case with the cell plates before adding the substance. The test substances were then added via the pipetting unit of the FLIPR (added volume 50 μl, 3× concentrated, end concentration 10 μM) to the cavities of the cell plates in a total volume of 150 μl/well. The threshold data of the FLIPR program were as follows:
The pipette tips were washed after each pipetting procedure 3 times with 1% DMSO in water. The times of the measurement intervals after addition of the test substances are as follows:
Total measurement time: 6 min/plate
The test samples were evaluated by calculating the difference between the maximum and minimum values. EC50/IC50 values are calculated using the Graph Pad Prism software.
Preparation of the membrane potential loading buffer (membrane potential assay kit red (FMP), bulk format cat. No. R8123) according to the manufacturer's instructions:
10 ml of the 10× assay buffer (component B) were diluted with 90 ml of sterile water and then adjusted to pH 7.4 with 1.0N NaOH (1× assay buffer). One vessel with the FLIPR membrane potential assay component A was completely dissolved in 100 ml 1× assay buffer and thoroughly mixed for 10 minutes with a magnetic stirrer. 5 ml aliquots were then stored at −20° C. (storage shelf life ca. 2 weeks).
An agonistic action can be detected starting from a value of −40 (and below).

SMILES | FLIPR membrane potential fluorescence change (ΔF %, max minus min); negative values indicate KCNQ2/3 agonism [%]
S=C(Nc1noc2ccccc12)NC1CCCCC1 [Example 23, 1-benzo[d]isoxazol-3-yl-3-cyclohexyl-thiourea] | −40
CCOc1ccc(NC(=S)Nc2noc3ccccc23)cc1 [Example 31, 1-benzo[d]isoxazol-3-yl-3-(4-ethoxyphenyl)-thiourea] | −49
COC(=O)C(C)NC(=S)Nc1noc2cccc(F)c12 (stereo not drawn) [Example 50, 2-[3-(4-fluoro-benzo[d]isoxazol-3-yl)-thioureido]-propionic acid methyl ester] | −59.5
Cc1ccccc1NC(=S)Nc1noc2cccc(Cl)c12 [Example 51, 1-(4-chlorobenzo[d]isoxazol-3-yl)-3-o-tolyl-thiourea] | −50
S=C(NCc1ccccc1)Nc1noc2cccc(Cl)c12 [Example 52, 1-benzyl-3-(4-chloro-benzo[d]isoxazol-3-yl)-thiourea] | −67.5
CC(NC(=S)Nc1noc2cccc(Cl)c12)c1ccccc1 (stereo not drawn) [Example 53, 1-(4-chlorobenzo[d]isoxazol-3-yl)-3-(1-phenyl-ethyl)-thiourea] | −42.5
CC(C)CNC(=S)Nc1noc2cccc(N(C)C)c12 [Example 54, 1-(4-dimethylamino-benzo[d]isoxazol-3-yl)-3-isobutyl-thiourea] | −64
Cc1ccc(NC(=S)Nc2noc3cccc(N(C)C)c23)cc1 [Example 55, 1-(4-dimethylamino-benzo[d]-isoxazol-yl)-3-p-tolyl-thiourea] | −84
CN(C)c1cccc2onc(NC(=S)Nc3cccc(Cl)c3)c12 [Example 56, 1-(3-chlorophenyl)-3-(4-dimethylaminobenzo[d]isoxazol-3-yl)-thiourea] | −55
Cc1cc(C)cc(NC(=S)Nc2noc3cccc(N(C)C)c23)c1 [Example 63, 1-(4-dimethylamino-benzo[d]isoxazol-3-yl)-3-(3,5-dimethylphenyl)-thiourea] | −56
CN(C)c1cccc2onc(NC(=S)NCc3ccccc3)c12 [Example 64, 1-benzyl-3-(4-dimethylamino-benzo[d]isoxazol-3-yl)-thiourea] | −52
COCCCNC(=S)Nc1noc2cccc(N(C)C)c12 [Example 65, 1-(4-dimethylamino-benzo[d]isoxazol-3-yl)-3-(3-methoxypropyl)-thiourea] | −79
COc1ccc(NC(=S)Nc2noc3cccc(OCC(F)(F)F)c23)cc1 [Example 84, 1-(4-methoxyphenyl)-3-[4-(2,2,2-trifluoroethoxy)-benzo[d]isoxazol-3-yl]-thiourea] | −40
CCCCCCCCCNC(=S)Nc1noc2cccc(OCc3ccc(C)cc3)c12 [Example 87, 1-[4-(4-methylbenzyloxy)-benzo[d]isoxazol-3-yl]-3-nonyl-thiourea] | −66.5
Cc1ccc(COc2cccc3onc(NC(=S)NC4CCCCC4)c23)cc1 [Example 90, 1-cyclohexyl-3-[4-(4-methylbenzyloxy)-benzo[d]isoxazol-3-yl]-thiourea] | −41.5
CN(C)c1ccc(NC(=S)Nc2noc3cccc(OCC(F)(F)F)c23)cc1 [Example 92, 1-(4-dimethylaminophenyl)-3-[4-(2.2,2-trifluoroethoxy)-benzo[d]isoxazol-3-yl]-thiourea] | −51
C=CCNC(=S)Nc1noc2ccc(C)cc12 [Example 93, 1-allyl-3-(5-methylbenzo[d]isoxazol-3-yl)-thiourea] | −45.5
COC(=O)CNC(=S)Nc1noc2ccc(C)cc12 [Example 94, [3-(5-methylbenzo[d]isoxazol-3-yl)-thioureido]-acetic acid methyl ester] | −47
Cc1ccc2onc(NC(=S)Nc3ccccc3C(C)C)c2c1 [Example 95, 1-(2-isopropylphenyl)-3-(5-methyl-benzo[d]isoxazol-3-yl)-thiourea] | −64
Cc1ccc2onc(NC(=S)Nc3ccc(C(F)(F)F)cc3)c2c1 [Example 96, 1-(5-methylbenzo[d]isoxazol-3-yl)-3-(4-trifluoromethylphenyl)-thiourea] | −57
COC(=O)C(C)NC(=S)Nc1noc2ccc(F)cc12 (stereo not drawn) [Example 97, 2-[3-(5-fluorobenzo(d]isoxazol-3-yl)-thioureido]-propionic acid methyl ester] | −58.5
Fc1ccc2onc(NC(=S)NCC3CCCO3)c2c1 (stereo not drawn) [Example 98, 1-(5-fluorobenzo[d]isoxazol-3-yl)-3-(tetrahydrofuran-2-yl-methyl)-thiourea] | −43.5
CCc1ccccc1NC(=S)Nc1noc2ccc(Br)cc12 [Example 100, 1-(5-bromobenzo[d]isoxazol-3-yl)-3-(2-ethylphenyl)-thiourea] | −42
S=C(Nc1noc2cc(Cl)ccc12)NC1CCCC1 [Example 103, 1-(6-chlorobenzo[d]isoxazol-3-yl)-3-cyclopentyl-thiourea] | −58
COc1ccc(NC(=S)Nc2noc3cc(Cl)ccc23)cc1 [Example 106, 1-(6-chlorobenzo[d]isoxazol-3-yl)-3-(4-methoxyphenyl)-thiourea] | −59
COc1cccc(NC(=S)Nc2noc3cc(Cl)ccc23)c1 [Example 107] | −80
COc1ccc(NC(=S)Nc2noc3cc(Br)ccc23)cc1OC [Example 108, 1-(6-bromobenzo[d]isoxazol-3-yl)-3-(3.4-dimethoxyphenyl)-thiourea] | −53.5
Cc1cccc(Cl)c1NC(=S)Nc1noc2cc(F)ccc12 [Example 113, 1-(2-chloro-6-methylphenyl)-3-(6-fluorobenzo[d]isoxazol-3-yl)-thiourea] | −55
CC(C)c1cccc(C(C)C)c1NC(=S)Nc1noc2cc(F)ccc12 [Example 114, 1-(2,6-diisopropylphenyl)-3-(6-fluorobenzo[d]isoxazol-3-yl)-thiourea] | −54
C=CCNC(=S)Nc1noc2c(F)cccc12 [Example 123, 1-allyl-3-(7-fluorobenzo[d]-isoxazol-3-yl)-thiourea] | −55

Source: patent US7696238B2, “Substituted benzo[d]isoxazol-3-yl amine compounds as analgesics” (Gruenenthal GmbH, priority 2005, dated 2010)
